# Laboratory results from US5688950A, “Tricyclic aminoalkylcarboxamides; novel dopamine D3 receptor subtype specific ligands” (Neurogen Corporation, priority 1996, dated 1997).
# Where a name gives a salt, the structure may show the parent alone. Read-outs that look alike come from different tables or passages of the source.
# Tests used:
# D3 receptor = biological target: T1, D3 receptor (Chlorocebus aethiops, UniProt P52703); assay: D3 receptor binding activity (pellets of COS cells, 3H-YM 09151-2); design: species or system African Green monkey
# T1 construct: expressed in transfected cells; host or cells: COS cells
# T1 sequence (P52703 whole entry): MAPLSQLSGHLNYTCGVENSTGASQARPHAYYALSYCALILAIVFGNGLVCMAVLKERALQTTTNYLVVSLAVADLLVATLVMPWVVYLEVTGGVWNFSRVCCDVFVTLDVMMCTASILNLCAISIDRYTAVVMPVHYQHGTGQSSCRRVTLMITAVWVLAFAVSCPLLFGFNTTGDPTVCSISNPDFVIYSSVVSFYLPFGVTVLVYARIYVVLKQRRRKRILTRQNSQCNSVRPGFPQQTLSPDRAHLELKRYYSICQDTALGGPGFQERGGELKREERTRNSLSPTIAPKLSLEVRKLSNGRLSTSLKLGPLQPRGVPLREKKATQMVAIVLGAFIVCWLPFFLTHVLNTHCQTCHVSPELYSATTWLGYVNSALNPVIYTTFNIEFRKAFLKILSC
# Protocol: (§1) Pellets of COS cells containing recombinantly produced D2 or D3 receptors from African Green monkey were used for the assays. The sample is homogenized in 100 volumes (w/vol) of 0.05M Tris HCl buffer at 4° C. and pH 7.4. The sample is then centrifuged at 30,000×g and resuspended and rehomogenized. The sample is then centrifuged as described and the final tissue sample is frozen until use. The tissue is resuspended 1:20 (wt/vol) in 0.05M Tris HCl buffer containing 100 mM NaCl.
# (§2) Incubations are carried out at 48° C. and contain 0.4 ml of tissue sample, 0.5 nM ^3 H-YM 09151-2 and the compound of interest in a total incubation of 1.0 ml. Nonspecific binding is defined as that binding found in the presence of 1 mM spiperone; without further additions, nonspecific binding is less than 20% of total binding. The binding characteristics of representative compounds of the invention for D2 and D3 receptor subtypes are shown in Table 1 for rat striatal homogenates.
# D2 receptor = biological target: T2, D2 receptor (Chlorocebus aethiops, UniProt P52702); assay: D2 receptor binding activity (pellets of COS cells, 3H-YM 09151-2); design: species or system African Green monkey; conditions: 0.5 nM 3H-YM 09151-2, pH 7.4; nonspecific with 1 mM spiperone
# T2 construct: expressed in transfected cells; host or cells: COS cells
# T2 sequence (P52702 whole entry): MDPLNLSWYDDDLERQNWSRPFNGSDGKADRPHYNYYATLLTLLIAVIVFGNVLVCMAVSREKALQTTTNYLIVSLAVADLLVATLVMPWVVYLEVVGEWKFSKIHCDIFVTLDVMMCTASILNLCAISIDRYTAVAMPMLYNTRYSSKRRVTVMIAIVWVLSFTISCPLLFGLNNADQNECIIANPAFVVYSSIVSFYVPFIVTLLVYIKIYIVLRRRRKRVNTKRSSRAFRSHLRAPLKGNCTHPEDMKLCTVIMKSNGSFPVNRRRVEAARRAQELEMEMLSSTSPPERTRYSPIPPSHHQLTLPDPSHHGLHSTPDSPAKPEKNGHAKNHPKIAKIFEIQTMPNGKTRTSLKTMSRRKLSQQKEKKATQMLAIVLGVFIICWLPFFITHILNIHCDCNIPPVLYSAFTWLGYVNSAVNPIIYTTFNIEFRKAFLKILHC
# Protocol: as §1, §2
# [1] = 0.5 nM 3H-YM 09151-2, pH 7.4, nonspecific with 1 mM spiperone, read-out: D3 Ki
Compound,Ki (D3 receptor; [1]),Ki (D2 receptor),Ki (D3 receptor)
"O=C(NCCCCN1CCc2c(ccc3ccccc23)C1)c1cnc2ccccc2c1 [Compound 1, N-{4-(1,2,3,4-tetrahydrobenz[f]isoquinolin-2-yl)butyl}-quinoline-3-carboxamide hydrochloride]",0.008 µM,0.127 µM,–
"O=C(NCCCCN1CCc2c(ccc3ccccc23)C1)c1ccc2sc3ccccc3c2c1 [Compound 7, N-{4-(1,2,3,4-tetrahydrobenz[f]isoquinolin-2-yl)butyl}-dibenzothiophene-2-carboxamide hydrochloride]",0.005 µM,0.377 µM,–
"O=C(NCCCCN1CCC2=C(CCc3ccccc32)C1)c1ccc(-c2ccccc2)cc1 [Compound 13, N-{4-(1,2,3,4,5,6-hexahydrobenz[f]isoquinolin-2-yl)butyl}-biphenyl-4-carboxamide hydrochloride]",–,0.362 µM,0.01 µM

# More lines, main results first:
Ki (D3 receptor; [1]),Ki (D2 receptor),Compound,Ki (D3 receptor)
0.017 µM,0.165 µM,"N-{4-(1,2,3,4-tetrahydrobenz[f]isoquinolin-2-yl)butyl}-fluoren-9-one-3-carboxamide hydrochloride [Compound 6]",–
0.012 µM,0.25 µM,"O=C(NCCCCN1CCc2c(ccc3ccccc23)C1)c1cnc2ccccc2n1 [Compound 8, N-{4-(1,2,3,4-tetrahydrobenz[f]isoquinolin-2-yl)butyl}-quinoxaline-2-carboxamide hydrochloride]",–
0.009 µM,0.198 µM,"O=C(NCCCCN1CCN2c3ccccc3CCC2C1)c1ccc2c(c1)Cc1ccccc1-2 (stereo not drawn) [Compound 14, N-{4-(2,3,4,4a,5,6-hexahydro-1H-pyrazino[1,2-a]quinolin-2-yl)butyl}-fluorene-2-carboxamide hydrochloride]",–
